The results in this text go back to patent US20220402883A1, “COMPOUNDS AND METHODS FOR MODULATING RNA FUNCTION” (Arrakis Therapeutics, Inc., priority 2016, published 2022).

In this experiment the test system is RNA3WJ_0.0.0_5IB_3FAM (3WJ_0.0.0_5IB_3FAM RNA construct). Nature of the experiment: Thermal shift binding assay. The following applies: for Melt. Temp. with cmpd / Shift melt. Temp.: RNA sequence 3WJ_0.0.0_5IB_FAM; for Melt. Temp. with cmpd: melting temperature in presence of compound; for Shift melt. Temp.: with cmpd minus without cmpd; for Temp. Shift: 1 μM RNA, 8 μM compound, 10 mM CacoK pH 7.2, 30 mM NaCl. The text has this:
Purpose: Test binding of compounds for RNA three way junction (for example, a construct of 38 nt). Thermal shift assay based on established fluorescence quenching assay utilizing FAM as fluorescence tag and Iowa Black as quencher. Tags were attached at the 3′ and 5′ end, respectively. Stable formation of 3WJ upon compound binding would lead to quenching of the FAM fluorescence due to close proximity of the Iowa Black tag. Thermal unfolding leads to increase of fluorescence emission. Assay readout: FAM (465-510 nm) Thermal Shift.
Assay sample buffer used: 10 mM CacoK pH 7.2, 30 mM NaCl. Buffer preparation in Dnase/Rnase Free distilled water (Gibco Life Technologies).
Dilute the RNA 1:10 (final 10 μM) in Assay Buffer.
Heat up the diluted RNA up to 90° C. for 5 min (sealed Eppendorf Tube).
Cool down the RNA probe slowly to RT.
Dilute the compounds to 800 μM in DMSO (Assay: 8 μM). […]
Pipet 20 μL Sample Solution into Roche, Light Cycler480 Multiwell Plate96, white, REF 04729692001.
Measure the 96 plate with the LightCycler480 (Channel: 480/510 nm; Temperature: 41-91° C.).
Analyse measurement-data with the MeltingCurveGenotyping Mode.
Settings: Acquisition mode: continuous; Ramp rate: 0.1° C./sec; Acquisition: 6° C.
Curves are fitted with raw and normalized data.
Melting curves analysis show melting temperature (Tm) of ˜51° C. Range of RNA concentrations was tested and assay window was determined (conc. range of 0.5-1 μM yields best results). The choice of buffer also affected the Tm. RNA constructs were tested under different buffer conditions (especially in presence of salt) in the thermal shift assay. […] CacoK with 30 mM salt at 1 μM RNA conc. was used to assess compound effects on 3WJ stability. […] These conditions were used for screening test compounds.

Counter-ions that a name gives are not always drawn.

`C#CCCCC(=O)NC[C@H]1O[C@H](O[C@H]2[C@H](O)[C@@H](O[C@H]3O[C@H](CN=[N+]=[N-])[C@@H](O)[C@H](N)[C@H]3O)[C@H](N)C[C@@H]2N)[C@H](O)[C@@H](O)[C@@H]1O` [ARK000009]: the “Melt. Temp. with cmpd” value is 62.9 °C and the “Shift melt. Temp.” value is “+0.6 °C”.

Take `CC1(C)CC(Oc2ccc(-c3ccc(-c4cn[nH]c4)cc3O)nn2)CC(C)(C)N1` [ARK000010]: the “Melt. Temp. with cmpd” value turned out to be 61.4 °C and the “Shift melt. Temp.” value was −0.2 °C.

On to `CN(c1ccc(-c2ccc(-c3cn[nH]c3)cc2O)nn1)C1CC(C)(C)NC(C)(C)C1` [ARK000011], for which the “Melt. Temp. with cmpd” value was determined as 60.3 °C and the “Shift melt. Temp.” value was −1.4 °C.

With `NCCCC[C@@H](N)C(=O)Nc1ccc2c(c1)C1c3cc(NC(=O)[C@H](N)CCCCN)ccc3C2c2ccc(NC(=O)[C@H](N)CCCCN)cc21` [ARK000016, (2R,2′R,2″R)—N,N′,N″-(9,10-dihydro-9,10-[1,2]benzenoanthracene-2,7,15-triyl)tris(2,6-diaminohexanamide)], the “Melt. Temp. with cmpd” value was 83.8 °C and the “Shift melt. Temp.” value was “+21.3 °C”.

As to `N[C@@H](Cc1c[nH]cn1)C(=O)Nc1ccc2c(c1)C1c3cc(NC(=O)[C@@H](N)Cc4c[nH]cn4)ccc3C2c2ccc(NC(=O)[C@@H](N)Cc3cnc[nH]3)cc21` [ARK000017, (2S,2′S,2″S)—N,N′,N″-(9,10-dihydro-9,10-[1,2]benzenoanthracene-2,7,15-triyl)tris(2-amino-3-(1H-imidazol-4-yl)propanamide)hydrochloride], the “Melt. Temp. with cmpd” value was found to be 60.6 °C and the “Shift melt. Temp.” value was −0.6 °C.

Consider `N[C@H](Cc1c[nH]cn1)C(=O)Nc1ccc2c(c1)C1c3cc(NC(=O)[C@H](N)Cc4c[nH]cn4)ccc3C2c2ccc(NC(=O)[C@H](N)Cc3cnc[nH]3)cc21` [ARK000018, (2R,2′R,2″R)—N,N′,N″-(9,10-dihydro-9,10-[1,2]benzenoanthracene-2,7,15-triyl)tris(2-amino-3-(1H-imidazol-4-yl)propanamide) hydrochloride], for which the “Melt. Temp. with cmpd” value worked out at 60.8 °C and the “Shift melt. Temp.” value is “+0.2 °C”.

Consider `O=C(O)CCC12C3=C(CCNC3)C(c3ccccc31)c1ccccc12` [ARK000019], for which the “Melt. Temp. with cmpd” value was 60.0 °C and the “Shift melt. Temp.” value is −0.3 °C.

Consider `O=C(O)CCC12C3=C(CNCC3)C(c3ccccc31)c1ccccc12` [ARK000020], for which the “Melt. Temp. with cmpd” value came out at 60.2 °C and the “Shift melt. Temp.” value was “+0.3 °C”.

For `CCOC(=O)c1ccccc1NC(=O)N1CCCN(Cc2csc(C)n2)CC1` [ARK000021], the “Melt. Temp. with cmpd” value was determined as 40.5 °C and the “Shift melt. Temp.” value is −19.0 °C.

For `CC(C)(C)OC(=O)NCCCC[C@H](NC(=O)OC(C)(C)C)C(=O)Nc1ccc2c(c1)C1(CCC(=O)NCCOCCOCCN)c3cc(NC(=O)[C@H](CCCCNC(=O)OC(C)(C)C)NC(=O)OC(C)(C)C)ccc3C2c2ccc(NC(=O)[C@H](CCCCNC(=O)OC(C)(C)C)NC(=O)OC(C)(C)C)cc21` [ARK000022], the “Melt. Temp. with cmpd” value was found to be 60.2 °C and the “Shift melt. Temp.” value was “+0.4 °C”.

For the molecule `CC(C)(C)OC(=O)NCCCC[C@H](NC(=O)OC(C)(C)C)C(=O)Nc1ccc2c(c1)C1(CCC(=O)NCCOCCOCCN)c3cc(NC(=O)[C@@H](CCCCNC(=O)OC(C)(C)C)NC(=O)OC(C)(C)C)ccc3C2c2ccc(NC(=O)[C@@H](CCCCNC(=O)OC(C)(C)C)NC(=O)OC(C)(C)C)cc21` [ARK000023], the “Melt. Temp. with cmpd” value is 60.7 °C and the “Shift melt. Temp.” value is “+0.6 °C”.

Consider `CN(CCOCCN(C)C(=O)[C@@H]1C[C@H](N=[N+]=[N-])CN1C(=O)COc1ccc2c(=O)oc(=O)n(C)c2c1)C(=O)CCC12c3cc(NC(=O)CCCCCCCN)ccc3C(c3ccc(NC(=O)CCCCCCCN)cc31)c1ccc(NC(=O)CCCCCCCN)cc12` [ARK000024, N,N′,N″-(9-(3-((2-(2-((2S,4S)-4-azido-N-methyl-1-(2-((1-methyl-2,4-dioxo-1,4-dihydro-2H-benzo[d][1,3]oxazin-7-yl)oxy)acetyl)pyrrolidine-2-carboxamido)ethoxy)ethyl)(methyl)amino)-3-oxopropyl)-9,10-dihydro-9,10-[1,2]benzenoanthracene-2,7,15-triyl)tris(8-aminooctanamide)], for which the “Melt. Temp. with cmpd” value is 60.7 °C and the “Shift melt. Temp.” value was “+0.3 °C”.

On to `CN(CCOCCOCCNC(=O)CCC12c3cc(NC(=O)CCCCCCCN)ccc3C(c3ccc(NC(=O)CCCCCCCN)cc31)c1ccc(NC(=O)CCCCCCCN)cc12)C(=O)[C@@H]1C[C@H](N=[N+]=[N-])CN1C(=O)COc1ccc2c(=O)oc(=O)n(C)c2c1` [ARK000025, N,N′,N″-(9-(1-((2S,4S)-4-azido-1-(2-((1-methyl-2,4-dioxo-1,4-dihydro-2H-benzo[d][1,3]oxazin-7-yl)oxy)acetyl)pyrrolidin-2-yl)-2,11-dimethyl-1,12-dioxo-5,8-dioxa-2,11-diazatetradecan-14-yl)-9,10-dihydro-9,10-[1,2]benzenoanthracene-2,7,15-triyl)tris(8-aminooctanamide)], for which the “Melt. Temp. with cmpd” value came out at 50.4 °C and the “Shift melt. Temp.” value was −10.2 °C.

As to `CN(CCOCCOCCOCCNC(=O)CCC12c3cc(NC(=O)CCCCCCCN)ccc3C(c3ccc(NC(=O)CCCCCCCN)cc31)c1ccc(NC(=O)CCCCCCCN)cc12)C(=O)[C@@H]1C[C@H](N=[N+]=[N-])CN1C(=O)COc1ccc2c(=O)oc(=O)n(C)c2c1` [ARK000026, N,N′,N″-(9-(1-((2S,4S)-4-azido-1-(2-((1-methyl-2,4-dioxo-1,4-dihydro-2H-benzo[d][1,3]oxazin-7-yl)oxy)acetyl)pyrrolidin-2-yl)-2,14-dimethyl-1,15-dioxo-5,8,11-trioxa-2,14-diazaheptadecan-17-yl)-9,10-dihydro-9,10-[1,2]benzenoanthracene-2,7,15-triyl)tris(8-aminooctanamide)], the “Melt. Temp. with cmpd” value amounted to 60.9 °C and the “Shift melt. Temp.” value is −1.2 °C.

Turning to `CN(CCOCCN(C)C(=O)[C@@H]1C[C@H](N=[N+]=[N-])CN1C(=O)CCc1ccc(S(=O)(=O)F)cc1)C(=O)CCC12c3cc(NC(=O)CCCCCCCN)ccc3C(c3ccc(NC(=O)CCCCCCCN)cc31)c1ccc(NC(=O)CCCCCCCN)cc12` [ARK000027], the “Melt. Temp. with cmpd” value was determined as 83.4 °C and the “Shift melt. Temp.” value is “+23.7 °C”.

As to `CN(CCOCCN(C)C(=O)[C@@H]1C[C@H](N=[N+]=[N-])CN1C(=O)c1ccc(S(=O)(=O)F)cc1)C(=O)CCC12c3cc(NC(=O)CCCCCCCN)ccc3C(c3ccc(NC(=O)CCCCCCCN)cc31)c1ccc(NC(=O)CCCCCCCN)cc12` [ARK000030], the “Melt. Temp. with cmpd” value was 64.8 °C and the “Shift melt. Temp.” value is “+4.8 °C”.

Consider `CN(CCOCCOCCNC(=O)CCC12c3cc(NC(=O)CCCCCCCN)ccc3C(c3ccc(NC(=O)CCCCCCCN)cc31)c1ccc(NC(=O)CCCCCCCN)cc12)C(=O)[C@@H]1C[C@H](N=[N+]=[N-])CN1C(=O)c1ccc(S(=O)(=O)F)cc1` [ARK000031, N,N′,N″-(9-(1-((2S,4S)-4-azido-1-(3-(4-(fluorosulfonyl)benzoyl)pyrrolidin-2-yl)-2,11-dimethyl-1,12-dioxo-5,8-dioxa-2,11-diazatetradecan-14-yl)-9,10-dihydro-9,10-[1,2]benzenoanthracene-2,7,15-triyl)tris(azanediyl))tris(8-aminooctanamide)], for which the “Temp. Shift” value was “+24.1 °C”, the “Melt. Temp. with cmpd” value amounted to 84.1 °C and the “Shift melt. Temp.” value is “+24.1 °C”.

`CN(CCOCCOCCOCCNC(=O)CCC12c3cc(NC(=O)CCCCCCCN)ccc3C(c3ccc(NC(=O)CCCCCCCN)cc31)c1ccc(NC(=O)CCCCCCCN)cc12)C(=O)[C@@H]1C[C@H](N=[N+]=[N-])CN1C(=O)c1ccc(S(=O)(=O)F)cc1` [ARK000032, 4-((2S,4S)-4-azido-2-(methyl(12-methyl-13-oxo-15-(2,7,15-tris(8-aminooctanamido)-9,10-[1,2]benzenoanthracen-9(10H)-yl)-3,6,9-trioxa-12-azapentadecyl)carbamoyl)pyrrolidine-1-carbonyl)benzenesulfonyl fluoride]: the “Temp. Shift” value was “+15.0 °C”, the “Melt. Temp. with cmpd” value was determined as 75.1 °C and the “Shift melt. Temp.” value was “+15.0 °C”.

Regarding `CN(CCOCCN(C)C(=O)[C@@H]1C[C@H](N=[N+]=[N-])CN1C(=O)c1ccc2c(=O)oc(=O)n(C)c2c1)C(=O)CCC12c3cc(NC(=O)CCCCCCCN)ccc3C(c3ccc(NC(=O)CCCCCCCN)cc31)c1ccc(NC(=O)CCCCCCCN)cc12` [ARK000033, N,N′,N″-(9-(3-((2-(2-((2S,4S)-4-azido-N-methyl-1-(1-methyl-2,4-dioxo-1,4-dihydro-2H-benzo[d][1,3]oxazine-7-carbonyl)pyrrolidine-2-carboxamido)ethoxy)ethyl)(methyl)amino)-3-oxopropyl)-9,10-dihydro-9,10-[1,2]benzenoanthracene-2,7,15-triyl)tris(8-aminooctanamide)], the “Melt. Temp. with cmpd” value worked out at 62.4 °C and the “Shift melt. Temp.” value was “+0.9 °C”.
